The source of these data is publication PMC5607265, “Design, synthesis and structure-activity relationship of 3,6-diaryl-7H-[1,2,4]triazolo[3,4-b][1,3,4]thiadiazines as novel tubulin inhibitors” (Scientific Reports, 2017).

Molecules are shown by their SMILES.

In general, IC50 refers to the concentration needed to halve the response being measured. As usually defined, the melting point is the temperature, or range, at which the solid turns liquid.

Series [1] concerns gastric adenocarcinoma SGC-7901 cells. The experiment in a line: MTT antiproliferative assay, SGC-7901. Type of series: cell-based, human. As to conditions: Homo sapiens, SGC-7901; MTT assay, 24 h exposure, triplicate; read-out: IC50 SGC-7901. The protocol:
(§1) The SGC-7901, A549 and HT-1080 cell lines were purchased from the American Type Culture Collection (ATCC, Manassas, VA, USA). […] Briefly, approximately 3 × 10^4 cells were seeded in a 96-well plate. After 24 h of incubation at 37 °C, cells were exposed to compounds of differing concentrations for 24 h. After treatment, cells were washed with 1X PBS followed by addition of 100 µL of 0.05% MTT reagent to each well, followed by incubation for 4 h at 37 °C. After incubation, the supernatant from each well was carefully removed and the formazan crystals were dissolved in 100 µL of DMSO. The colour density was measured spectrophotometrically at 490 nm using a microplate reader (SpectraMax Plus384, Molecular Devices Corp., USA). The data were calculated and plotted as percent viability compared to control.
as §1

The subject of series [2] is lung adenocarcinoma A549 cells. The experiment in a line: MTT antiproliferative assay, A549. As to conditions: Homo sapiens, A549; MTT assay, 24 h exposure, triplicate; read-out: IC50 A549. Format: cell-based, human. How it is done:
as §1, §1

Series [3] deals with fibrosarcoma HT-1080 cells. Briefly: MTT antiproliferative assay, HT-1080. Format: cell-based, human. The following applies: Homo sapiens, HT-1080; MTT assay, 24 h exposure, triplicate; read-out: IC50 HT-1080. The protocol: as §1, §1
A general note: Tetrazolium assays rely on reduction of a dye to a coloured formazan, in cell work by metabolically active cells.

`COc1ccc(-c2nnc3n2N=C(c2ccc(OC)c([N+](=O)[O-])c2)CS3)cc1OC` [Compound 6f, 3-(3,4-Dimethoxyphenyl)-6-(3-nitro-4-methoxyphenyl)-7H-[1,2,4]triazolo[3,4-b][1,3,4]thiadiazine] registered a melting point of 190 to 192 °C. The IC50 in series [1] was 5.04 µM. Also, the IC50 in series [2] is 3.68 µM. The half-inhibitory concentration (IC50) in series [3] worked out at 3.32 µM.
`COc1cc(-c2nnc3n2N=C(c2ccc(Cl)cc2)CS3)cc(OC)c1OC` [Compound 5a, 3-(3,4,5-Trimethoxyphenyl)-6-(4-chlorophenyl)-7H-[1,2,4]triazolo[3,4-b][1,3,4]thiadiazine] registered a melting point of 125 to 127 °C. The IC50 in series [1] was 1.37 µM. Besides, the IC50 in series [2] was found to be 0.27 µM. Besides, the IC50 in series [3] came out at 0.88 µM.
For `COc1ccc(C2=Nn3c(nnc3-c3ccc4c(c3)OCO4)SC2)cc1[N+](=O)[O-]` [Compound 6b, 3-(3,4-Methylenedioxyphenyl)-6-(3-nitro-4-methoxyphenyl)-7H-[1,2,4]triazolo[3,4-b][1,3,4]thiadiazine] the same measures were 90 to 92 °C, 10.5 µM, 15.7 µM and 0.08 µM.
Take `COc1ccc(-c2nnc3n2N=C(c2ccc(C(F)(F)F)cc2)CS3)c(OC)c1OC` [Compound 4e, 3-(2,3,4-Trimethoxyphenyl)-6-(4-(trifluoromethyl)phenyl)-7H-[1,2,4]triazolo[3,4-b][1,3,4]thiadiazine]: the melting point is 95 to 96 °C. For the same molecule, in series [1], the IC50 came out at 2.42 µM. Also, in series [2], the IC50 was determined as 85.4 µM. For the same molecule, the IC50 in series [3] was 10.5 µM.
For `COc1ccc(C2=Nn3c(nnc3-c3cc(OC)c(OC)c(OC)c3)SC2)cc1[N+](=O)[O-]` [Compound 5f, 3-(3,4,5-Trimethoxyphenyl)-6-(3-nitro-4-methoxyphenyl)-7H-[1,2,4]triazolo[3,4-b][1,3,4]thiadiazine], the melting point fell in the range of 212 to 213 °C. Moreover, the IC50 in series [1] turned out to be 11.3 µM. In addition, the IC50 in series [2] came to 8.88 µM. Moreover, the IC50 in series [3] was determined as 5.76 µM.
`COc1ccc(C2=Nn3c(nnc3-c3cc(OC)c(OC)c(OC)c3)SC2)cc1N` [Compound 5g, 3-(3,4,5-Trimethoxyphenyl)-6-(3-amino-4-methoxyphenyl)-7H-[1,2,4]triazolo[3,4-b][1,3,4]thiadiazine] gave a melting point of 112 to 115 °C. In addition, the IC50 in series [1] was 1.25 µM. Besides, in series [2], the IC50 is 1.08 µM. The IC50 in series [3] was 0.18 µM.
For `COc1ccc(C2=Nn3c(nnc3-c3ccc4c(c3)OCO4)SC2)cc1F` [Compound 6a, 3-(3,4-Methylenedioxyphenyl)-6-(3-fluoro-4-methoxyphenyl)-7H-[1,2,4]triazolo[3,4-b][1,3,4]thiadiazine], the melting point was 93 to 95 °C. Moreover, in series [1], the IC50 turned out to be 0.065 µM. Moreover, the IC50 in series [2] was 0.19 µM. In series [3], the IC50 was determined as 0.13 µM.
With `COc1ccc(-c2nnc3n2N=C(c2ccc(Br)cc2)CS3)c(OC)c1OC` [Compound 4c, 3-(2,3,4-Trimethoxyphenyl)-6-(4-bromophenyl)-7H-[1,2,4]triazolo[3,4-b][1,3,4]thiadiazines], the melting point lay in the range of 96 to 98 °C. Moreover, the IC50 in series [1] was determined as 5.55 µM. Also, the IC50 in series [2] was found to be 7.37 µM. Further, in series [3], the IC50 worked out at 3.77 µM.
On the same counts, the results for `COc1ccc(C2=Nn3c(nnc3-c3cc(OC)c(OC)c(OC)c3)SC2)cc1F` [Compound 5e, 3-(3,4,5-Trimethoxyphenyl)-6-(3-fluoro-4-methoxyphenyl)-7H-[1,2,4]triazolo[3,4-b][1,3,4]thiadiazine] are 115 to 118 °C, 4.28 µM, 3.21 µM and 1.31 µM.
The molecule `COc1ccc(-c2nnc3n2N=C(c2ccc(SC)cc2)CS3)c(OC)c1OC` [Compound 4g, 3-(2,3,4-Trimethoxyphenyl)-6-(4-methylthiophenyl)-7H-[1,2,4]triazolo[3,4-b][1,3,4]thiadiazine] displayed a melting point of 86 to 88 °C. Further, the IC50 in series [1] worked out at 8.02 µM. In addition, the IC50 in series [2] worked out at 12.5 µM. Also, the IC50 in series [3] amounted to 2.7 µM.
In turn, `COc1cc(-c2nnc3n2N=C(c2ccc(SC)cc2)CS3)cc(OC)c1OC` [Compound 5d, 3-(3,4,5-Trimethoxyphenyl)-6-(4-methylthiophenyl)-7H-[1,2,4]triazolo[3,4-b][1,3,4]thiadiazine] showed a melting point of 92 to 94 °C. In addition, in series [1], the IC50 was determined as 0.13 µM. For the same molecule, the IC50 in series [2] turned out to be 0.46 µM. The IC50 in series [3] is 0.18 µM.
On the same counts, the results for `COc1ccc(C2=Nn3c(nnc3-c3ccc(OC)c(OC)c3OC)SC2)cc1OCc1ccccc1` [Compound 4k, 3-(2,3,4-Trimethoxyphenyl)-6-(3-benzyloxy-4-methoxyphenyl)-7H-[1,2,4]triazolo[3,4-b][1,3,4]thiadiazine] are 85 to 86 °C, 28.9 µM, 8.9 µM and 28.3 µM.
For `COc1ccc(-c2nnc3n2N=C(c2ccc(F)c(F)c2)CS3)c(OC)c1OC` [Compound 4m, 3-(2,3,4-Trimethoxyphenyl)-6-(3,4-difluorophenyl)-7H-[1,2,4]triazolo[3,4-b][1,3,4]thiadiazine] the same measures were 95 to 97 °C, 73.2 µM, 78.1 µM and 81.3 µM.
For `COc1ccc(C2=Nn3c(nnc3-c3cc(OC)c(OC)c(OC)c3)SC2)cc1OCc1ccccc1` [Compound 5h, 3-(3,4,5-Trimethoxyphenyl)-6-(3-benzyloxy-4-methoxyphenyl)-7H-[1,2,4]triazolo[3,4-b][1,3,4]thiadiazine] the same measures were 93 to 94 °C, 1.66 µM, 2.94 µM and 1.57 µM.
`COc1ccc(-c2nnc3n2N=C(c2ccc(F)cc2)CS3)c(OC)c1OC` [Compound 4a, 3-(2,3,4-Trimethoxyphenyl)-6-(4-fluorophenyl)-7H-[1,2,4]triazolo[3,4-b][1,3,4]thiadiazine] displayed a melting point of 92 to 94 °C. For the same molecule, in series [1], the IC50 was 32.6 µM. Further, the IC50 in series [2] is 21.2 µM. In addition, in series [3], the IC50 came to 31.3 µM.
For `COc1ccc(C2=Nn3c(nnc3-c3ccc(OC)c(OC)c3OC)SC2)cc1` [Compound 4f, 3-(2,3,4-Trimethoxyphenyl)-6-(4-methoxyphenyl)-7H-[1,2,4]triazolo[3,4-b][1,3,4]thiadiazine] the same measures were 92 to 95 °C, 62.7 µM, 50.2 µM and 61.4 µM.
With `COc1ccc(C2=Nn3c(nnc3-c3ccc(OC)c(OC)c3OC)SC2)cc1[N+](=O)[O-]` [Compound 4i, 3-(2,3,4-Trimethoxyphenyl)-6-(3-nitro-4-methoxyphenyl)-7H-[1,2,4]triazolo[3,4-b][1,3,4]thiadiazine], the melting point fell in the range of 134 to 136 °C. Further, the IC50 in series [1] was determined as 13.2 µM. The IC50 in series [2] is 16.5 µM. The IC50 in series [3] worked out at 15.9 µM.
Consider `COc1ccc(C2=Nn3c(nnc3-c3ccc4c(c3)OCO4)SC2)cc1OCc1ccccc1` [Compound 6d, 3-(3,4-Methylenedioxyphenyl)-6-(3-benzyloxy-4-methoxyphenyl)-7H-[1,2,4]triazolo[3,4-b][1,3,4]thiadiazine], for which the melting point is 86 to 88 °C. For the same molecule, in series [1], the IC50 is 8.49 µM. Besides, the IC50 in series [2] came out at 16.3 µM. Moreover, the IC50 in series [3] is 7.32 µM.
`COc1cccc(-c2nnc3n2N=C(c2ccc(OC)c([N+](=O)[O-])c2)CS3)c1` [Compound 6h, 3-(3-Methoxyphenyl)-6-(3-nitro-4-methoxyphenyl)-7H-[1,2,4]triazolo[3,4-b][1,3,4]thiadiazine]: the melting point lay within 207 to 208 °C. For the same molecule, the IC50 in series [1] worked out at 2.55 µM. The IC50 in series [2] came to 4.2 µM. For the same molecule, in series [3], the IC50 came out at 1.91 µM.
For `COc1ccc(-c2nnc3n2N=C(c2ccc(OC)c([N+](=O)[O-])c2)CS3)cc1` [Compound 6j, 3-(4-Methoxyphenyl)-6-(3-nitro-4-methoxyphenyl)-7H-[1,2,4]triazolo[3,4-b][1,3,4]thiadiazine] the same measures were 97 to 99 °C, 8.04 µM, 5.68 µM and 2.32 µM.
On the same counts, the results for `COc1ccc(C2=Nn3c(nnc3-c3ccc(OC)c(OC)c3OC)SC2)cc1F` [Compound 4h, 3-(2,3,4-Trimethoxyphenyl)-6-(3-fluoro-4-methoxyphenyl)-7H-[1,2,4]triazolo[3,4-b][1,3,4]thiadiazine] are 92 to 94 °C, 43.2 µM, 16.3 µM and 51.9 µM.
The molecule `COc1ccc(-c2nnc3n2N=C(c2ccc(Cl)cc2)CS3)c(OC)c1OC` [Compound 4b, 3-(2,3,4-Trimethoxyphenyl)-6-(4-chlorophenyl)-7H-[1,2,4]triazolo[3,4-b][1,3,4]thiadiazine] displayed a melting point of 88 to 90 °C. The IC50 in series [1] turned out to be 24.5 µM. The IC50 in series [2] was 23.2 µM. In addition, the half-maximal inhibitory concentration (IC50) in series [3] was 24.7 µM.
